Laboratory results from ChEMBL document CHEMBL1145168, “Farnesoid X receptor: from structure to potential clinical applications” (J Med Chem, 2005).

How the values were obtained:
Bile acid receptor = target: T1, Bile acid receptor (Homo sapiens, UniProt Q96RI1); test: Activation of human farnesoid X receptor in FRET assay
T1 sequence (Q96RI1 whole entry): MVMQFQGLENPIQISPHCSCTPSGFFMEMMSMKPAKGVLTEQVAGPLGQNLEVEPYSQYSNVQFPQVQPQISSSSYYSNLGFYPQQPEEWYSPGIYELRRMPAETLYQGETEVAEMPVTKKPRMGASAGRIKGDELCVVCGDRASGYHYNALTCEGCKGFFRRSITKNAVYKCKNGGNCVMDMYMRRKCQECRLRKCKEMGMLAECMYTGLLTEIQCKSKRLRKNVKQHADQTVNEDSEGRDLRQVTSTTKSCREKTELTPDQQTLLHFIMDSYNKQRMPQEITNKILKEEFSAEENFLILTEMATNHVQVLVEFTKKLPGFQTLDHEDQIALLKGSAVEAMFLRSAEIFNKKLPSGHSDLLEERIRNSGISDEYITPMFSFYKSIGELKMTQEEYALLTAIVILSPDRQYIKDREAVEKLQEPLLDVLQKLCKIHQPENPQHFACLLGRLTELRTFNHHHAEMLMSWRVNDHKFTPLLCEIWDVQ

Homo sapiens = organism: Homo sapiens; test: Activation of human Farnesoid X receptor/Retinoic X receptor at 5 uM
[1] = Inhibition of human Farnesoid X receptor/Retinoid X receptor heterodimer; Antagonistic activity; type: functional

EC50 (Bile acid receptor) [nM]	Fold activation (Homo sapiens)	SMILES	further results
255		CN(C)c1ccc(-c2ccc(CN(C(=O)C3CCCCC3)c3cccc(/C=C/C(=O)O)c3)cc2)cc1	
	91	CC1(C)CCC(C)(C)c2cc(C(Cc3ccc(C(=O)O)cc3)[Si](C)(C)C)ccc21 (stereo unspecified)	

Further lines, the molecule ahead of its results:

SMILES	EC50 (Bile acid receptor) [nM]	Fold activation (Homo sapiens)	further results
O=C(O)/C=C/c1cccc(N(Cc2ccc(/C=C/c3ccccc3)cc2)C(=O)C2CCCCC2)c1	255		
CCCC/C(=C\c1ccc(C(=O)O)cc1)c1ccc2c(c1)C(C)(C)CCC2(C)C		85	
CCCCCCOc1c(\C(C)=C/C=C/C(C)=C/C(=O)O)cc(C(C)C)cc1C(C)C			IC50 [1]: < 10 nM
O=C(O)/C=C/c1cccc(N(Cc2ccc(-c3ccc4c(c3)OCO4)cc2)C(=O)C2CCCCC2)c1	222		
